Results reported in ChEMBL document CHEMBL1146562, “Turbinatine, a potential key intermediate in the biosynthesis of corynanthean-type indole alkaloids” (2003).

Columns and labels:
Saccharomyces cerevisiae [1] = assay: DNA damaging activity in yeast RS 322YK mutant assessed as drug level required to produce 12 mm zone of inhibition; type: functional
Saccharomyces cerevisiae [2] = assay: DNA damaging activity in yeast RS 188N mutant assessed as drug level required to produce 12 mm zone of inhibition; type: functional

SMILES | IC12 (Saccharomyces cerevisiae [1]) [µg/mL] | IC12 (Saccharomyces cerevisiae [2]) [µg/mL]
C=C[C@H]1[C@H](O[C@@H]2O[C@H](CO)[C@@H](O)[C@H](O)[C@H]2O)OC=C(C(=O)OC)[C@H]1C[C@@H]1N[C@@H](C(=O)O)Cc2c1[nH]c1ccccc21 | 100 | > 250
C/C=C(\C=O)[C@@H]1C[C@H]2c3[nH]c4ccccc4c3CCN2C=C1C(=O)OC [ISOVALLESIACHOTAMINE] | 100 | > 250
C=C[C@H]1[C@H](O[C@@H]2O[C@H](CO)[C@@H](O)[C@H](O)[C@H]2O)OC=C(C(=O)OC)[C@H]1C[C@@H]1NCCc2c1[nH]c1ccccc21 [STRICTOSIDINE] | 100 | > 250
C=C[C@H]1[C@@H](/C(=C/O)C(=O)OC)C[C@H]2c3[nH]c4ccccc4c3CCN2[C@H]1O[C@H]1O[C@@H](CO)[C@H](O)[C@@H](O)[C@@H]1O [TURBINATINE] | 100 | > 250
C/C=C(/C=O)[C@@H]1C[C@H]2c3[nH]c4ccccc4c3CCN2C=C1C(=O)OC [VALLESIACHOTAMINE] | 100 | > 250
